Assay results reported in patent publication US20240208952A1, “THIOPHENE GLP-1 RECEPTOR AGONIST AND USE THEREOF” (priority 2021, published 2024).

Legend:
Human GLP-1R = target: T1, Human GLP-1R (Homo sapiens, UniProt P43220); experiment: GLP-1R agonist activity, HTRF cAMP level test in 293A GFP-GLP-1R cells; format: cell-based
T1 construct: expressed in transfected cells
Protocol: GLP-1R-mediated agonist activity was determined by cell-based assays using a homogeneous time-resolved fluorescence (i.e., HTRF)-based cAMP detection kit, which measures the level of cAMP in cells. The method was a competitive immunoassay. It enabled direct pharmacological characterization of compounds acting on Gs-coupled receptors in adherent or suspending cells.
The standard curve of native cAMP or unlabeled cAMP produced by cells competed with d2-labeled cAMP red receptors to bind monoclonal anti-cAMP Eu3+ cryptate donors, and the specific signal was inversely proportional to the concentration of cAMP in standard or tested samples.
Human GLP-1R encoding sequence (NCBI reference sequence NP_002053.3) was subcloned into pEGFP-N1 (tsingke), and the cell line stably expressing the receptor was isolated.
The final DMSO concentration in the buffer mixture was determined to be 1% o.
Cells were collected from a T25 tissue culture flask and centrifuged at room temperature at 1000 rpm for 5 minutes. The cell precipitates were then re-suspended in 1 mL of the stimulating buffer. 20 μL sample of cell suspension was counted on a counter STAR IC 1000 to determine the cell viability and the cell count per mL. The remaining cell suspension was then regulated with the stimulating buffer to deliver 2000 living cells per well using a multi-channel pipette. 5 μL of the cell suspension was added to each well of the plate which already contained the compound. The plate was sealed and incubated at 37° C. with 5% CO2 for 30 minutes.
After 30 minutes of incubation, 5 μL of d2-labeled cAMP and 5 μL of anti-cAMP cryptate (both 1:20 diluted in the cell lysis buffer) were added to each well of the plate. The plate was then incubated at room temperature for 60 minutes, and the changes of HTRF signal were read with Tecan Spark reader: […] at 340 nm (excitation)/at 615 nm and 665 nm (emission). Raw data were converted into nM cAMP by interpolation from the cAMP standard curve, and the effect in percentage was determined relative to the saturated concentration of the complete agonist GLP-17˜37 (400 nM) contained in each plate. Determination of EC50 was performed based on the agonist dose-response curve, which was analyzed using a four-parameter logical dose-response equation with a curve fitting program.
The test data presented the results in the form of a geometric mean (EC50s) based on the number of repetition times.

hERG potassium channel = hERG potassium channel (Homo sapiens, UniProt Q12809); experiment: Inhibition of hERG potassium channels, whole-cell patch clamp in HEK-hERG cells; conditions: HEK293 cells stably expressing hERG (HEK-hERG)
Protocol: The cell suspension was added to a small petri dish and placed on an inverted microscope stage.
Such a set of pulse programming was repeated every 15 seconds throughout the experiment.

[1] = Metabolic stability in (human) liver microsomes; format: in vitro ADME; conditions: pH 7.4, 0.5 mg/mL microsomal protein, 37° C., 0-45 minutes, LC-MS/MS, read-out: LMS(t1/2 min)
Protocol: 1. Experimental design: test concentration: […]; control compound: testosterone; culture conditions: cultured at 37° C. for 0, 5, 15, 30, 45 minutes; method of determination: LC-MS/MS; calculation method: T1/2=0.693/K (K is the rate constant of the ln [concentration] vs. incubation time profile), Clint=(0.693/T1/2)×(1/(microsomal protein concentration (0.5 mg/mL)))×scaling factor.
2. Experimental method: 1. preheating 0.1 M K-buffer, […], pH=7.4; 2. test solutions of test compound and reference compound, 500 μM additive solution: 5 μL of 10 mM stock solution was added to 95 μL can; […] and 18.75 μL of 20 Mg/mL liver microsome were added to 479.75 μL of K/Mg buffer; 3. 3×NADPH stock solution (6 mM, 5 mg/mL) was prepared by dissolving NADPH in the buffer solution; 4. 30 μL of 1.5 μM additive solution containing 0.75 mg/mL microsomal solution was distributed to the plates designated for different time points (0, 5, 15, 30, 45 minutes); 5. at 0 min, 150 μL of ACN containing IS was added to the wells of the plate, followed by addition of 15 μL of NADPH stock solution (6 mM, step 3); 6. all other plates were pre-incubated at 37° C. for 5 minutes; 7. adding 15 μL of NADPH stock solution to the plate to start the reaction and timing; 8. 150 μL of ACN containing IS was added to the wells of the corresponding plates to stop the reaction at 5 min, 15 min, 30 min and 45 min, respectively; 9. after quenching, the plates were shaken on a shaker for 10 minutes (600 rpm/min) and then centrifuged at 6000 rpm for 15 minutes; 10. 80 μL of supernatant was transferred from each well to a 96-well sample plate containing 140 μL water for LC/MS analysis.
Detection method: LC-MS/MS-11 (8050), internal standard: tolbutamide; MS conditions: positive ion ESI for testosterone and test compound, and negative ion ESI for tolbutamide; Mobile phases: mobile phase A is 0.1% FA in water, and mobile phase B is 0.1% FA in ACN; Column and specification: ACQUITY UPLC HSS T3 1.8 um 2.1*50 mm.

hERG potassium channel, sequence (Q12809 whole entry): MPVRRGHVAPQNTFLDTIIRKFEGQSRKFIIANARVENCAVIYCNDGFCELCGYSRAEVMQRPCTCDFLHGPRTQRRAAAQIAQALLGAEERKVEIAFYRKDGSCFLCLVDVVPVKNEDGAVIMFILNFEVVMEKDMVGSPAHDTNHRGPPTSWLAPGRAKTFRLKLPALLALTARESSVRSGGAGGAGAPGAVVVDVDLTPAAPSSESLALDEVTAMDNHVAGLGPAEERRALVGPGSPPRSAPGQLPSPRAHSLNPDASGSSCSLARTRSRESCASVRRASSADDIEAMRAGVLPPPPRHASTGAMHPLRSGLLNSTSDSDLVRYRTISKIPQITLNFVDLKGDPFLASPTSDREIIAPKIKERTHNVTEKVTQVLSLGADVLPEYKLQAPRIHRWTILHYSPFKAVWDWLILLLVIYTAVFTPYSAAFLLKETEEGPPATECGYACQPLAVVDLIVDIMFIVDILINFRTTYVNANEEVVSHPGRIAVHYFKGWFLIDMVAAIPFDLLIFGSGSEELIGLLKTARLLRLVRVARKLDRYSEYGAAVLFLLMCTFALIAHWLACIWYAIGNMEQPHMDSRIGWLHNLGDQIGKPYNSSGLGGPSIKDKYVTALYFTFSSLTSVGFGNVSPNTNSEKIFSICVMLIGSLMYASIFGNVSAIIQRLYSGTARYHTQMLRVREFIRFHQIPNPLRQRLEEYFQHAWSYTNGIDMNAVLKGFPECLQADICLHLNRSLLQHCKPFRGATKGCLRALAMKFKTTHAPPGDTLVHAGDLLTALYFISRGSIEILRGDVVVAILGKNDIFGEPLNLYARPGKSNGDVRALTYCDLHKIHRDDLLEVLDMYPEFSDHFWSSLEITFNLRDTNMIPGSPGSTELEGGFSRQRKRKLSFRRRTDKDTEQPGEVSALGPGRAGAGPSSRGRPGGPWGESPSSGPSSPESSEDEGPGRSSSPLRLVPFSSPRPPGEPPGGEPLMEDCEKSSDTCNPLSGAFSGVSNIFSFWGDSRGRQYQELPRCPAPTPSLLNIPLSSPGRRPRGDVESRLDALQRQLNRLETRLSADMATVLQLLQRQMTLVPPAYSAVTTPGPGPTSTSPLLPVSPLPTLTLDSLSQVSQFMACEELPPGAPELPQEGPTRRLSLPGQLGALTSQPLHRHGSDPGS
T1 sequence (P43220 24-463): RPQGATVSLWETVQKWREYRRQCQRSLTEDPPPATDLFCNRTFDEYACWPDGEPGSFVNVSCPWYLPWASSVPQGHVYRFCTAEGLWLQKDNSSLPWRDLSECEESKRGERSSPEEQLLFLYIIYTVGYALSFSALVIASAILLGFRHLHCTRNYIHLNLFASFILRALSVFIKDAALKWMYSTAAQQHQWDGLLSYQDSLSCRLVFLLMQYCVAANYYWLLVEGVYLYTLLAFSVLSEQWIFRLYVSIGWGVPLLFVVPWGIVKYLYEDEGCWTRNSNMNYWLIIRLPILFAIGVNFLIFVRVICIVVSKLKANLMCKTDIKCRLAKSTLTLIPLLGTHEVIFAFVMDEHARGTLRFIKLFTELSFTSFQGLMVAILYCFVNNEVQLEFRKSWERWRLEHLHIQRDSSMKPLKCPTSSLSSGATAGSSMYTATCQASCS

CC(=O)c1ccc(COc2cccc(C3CCN(Cc4nc5ccc(C(=O)O)cc5n4C[C@@H]4CCO4)CC3)n2)s1 [Compound 1, (S)-2-((4-(6-((5-acetylthiophen-2-yl)methoxy)pyridin-2-yl)piperidin-1-yl)methyl)-1-(oxetan-2-ylmethyl)-1H-benzo[d]imidazole-6-carboxylic acid]
EC50 (Human GLP-1R): 4.67 nM | inhibition at 1 µM (hERG potassium channel): 9.82% | inhibition at 10 µM (hERG potassium channel): 53.8% | half-life at 1 μM [1]: 115 min

CC(=O)c1csc(COc2cccc(C3CCN(Cc4nc5ccc(C(=O)O)cc5n4C[C@@H]4CCO4)CC3)n2)c1 [Compound 2, (S)-2-((4-(6-((4-acetylthiophen-2-yl)methoxy)pyridin-2-yl)piperidin-1-yl)methyl)-1-(oxetan-2-ylmethyl)-1H-benzo[d]imidazole-6-carboxylic acid]
EC50 (Human GLP-1R): 88.8 nM

CC(=O)c1cc(COc2cccc(C3CCN(Cc4nc5ccc(C(=O)O)cc5n4C[C@@H]4CCO4)CC3)n2)cs1 [Compound 3, (S)-2-((4-(6-((5-acetylthiophen-3-yl)methoxy)pyridin-2-yl)piperidin-1-yl)methyl)-1-(oxetan-2-ylmethyl)-1H-benzo[d]imidazole-6-carboxylic acid]
EC50 (Human GLP-1R): 121 nM

N#Cc1ccc(COc2cccc(C3CCN(Cc4nc5ccc(C(=O)O)cc5n4C[C@@H]4CCO4)CC3)n2)s1 [Compound 4, (S)-2-((4-(6-((5-Cyanothiophen-2-yl)methoxy)pyridin-2-yl)piperidin-1-yl)methyl)-1-(oxetan-2-ylmethyl)-1H-benzo[d]imidazole-6-carboxylic acid]
EC50 (Human GLP-1R): 1 nM | inhibition at 1 µM (hERG potassium channel): 14.2% | inhibition at 10 µM (hERG potassium channel): 72.2% | half-life at 1 μM [1]: 132 min

CC(=O)c1cc(Cl)c(COc2cccc(C3CCN(Cc4nc5ccc(C(=O)O)cc5n4C[C@@H]4CCO4)CC3)n2)s1 [Compound 5, (S)-2-((4-(6-((5-acetyl-3-chlorothien-2-yl)methoxy)pyridin-2-yl)piperidin-1-yl)methyl)-1-(oxetan-2-ylmethyl)-1H-benzo[d]imidazole-6-carboxylic acid]
EC50 (Human GLP-1R): 0.56 nM | half-life at 1 μM [1]: 37.3 min

O=C(O)c1ccc2nc(CN3CCC(c4cccc(OCc5ccc(C(=O)C6CC6)s5)n4)CC3)n(C[C@@H]3CCO3)c2c1 [Compound 6, (S)-2-((4-(6-((5-(cyclopropanecarbonyl)thiophen-2-yl)methoxy)pyridin-2-yl)piperidin-1-yl)methyl)-1-(oxetan-2-ylmethyl)-1H-benzo[d]imidazole-6-carboxylic acid]
EC50 (Human GLP-1R): 0.03 nM

N#Cc1cc(Cl)c(COc2cccc(C3CCN(Cc4nc5ccc(C(=O)O)cc5n4C[C@@H]4CCO4)CC3)n2)s1 [Compound 7, (S)-2-((4-(6-((3-chloro-5-cyanothiophen-2-yl)methoxy)pyridin-2-yl)piperidin-1-yl)methyl)-1-(oxetan-2-ylmethyl)-1H-benzo[d]imidazole-6-carboxylic acid]
EC50 (Human GLP-1R): 0.02 nM | half-life at 1 μM [1]: 21.2 min

N#Cc1sc(COc2cccc(C3CCN(Cc4nc5ccc(C(=O)O)cc5n4C[C@@H]4CCO4)CC3)n2)cc1Cl [Compound 8, (S)-2-((4-(6-((4-chloro-5-cyanothiophen-2-yl)methoxy)pyridin-2-yl)piperidin-1-yl)methyl)-1-(oxetan-2-ylmethyl)-1H-benzo[d]imidazole-6-carboxylic acid]
EC50 (Human GLP-1R): 0.05 nM

O=C(O)c1ccc2nc(CN3CCC(c4cccc(OCc5ccc(C(F)(F)F)s5)n4)CC3)n(C[C@@H]3CCO3)c2c1 [Compound 9, (S)-1-(oxetan-2-ylmethyl)-2-((4-(6-((5-(trifluoromethyl)thiophen-2-yl)methoxy)pyridin-2-yl)piperidin-1-yl)methyl)-1H-benzo[d]imidazole-6-carboxylic acid]
EC50 (Human GLP-1R): 0.08 nM

O=C(O)c1ccc2nc(CN3CCC(c4cccc(OCc5cc6ccncc6s5)n4)CC3)n(C[C@@H]3CCO3)c2c1 [Compound 10, 1-(oxetan-2-ylmethyl)-2-((4-(6-(thieno[2,3-c]pyridin-2-ylmethoxy)pyridin-2-yl)piperidin-1-yl)methyl)-1H-benzo[d]imidazole-6-carboxylic acid]
EC50 (Human GLP-1R): 0.05 nM | half-life at 1 μM [1]: 22.5 min

Cc1cc(C#N)sc1COc1cccc(C2CCN(Cc3nc4ccc(C(=O)O)cc4n3C[C@@H]3CCO3)CC2)n1 [Compound 11, (S)-2-((4-(6-((5-cyano-3-methylthiophen-2-yl)methoxy)pyridin-2-yl)piperidin-1-yl)methyl)-1-(oxetan-2-ylmethyl)-1H-benzo[d]imidazole-6-carboxylic acid]
EC50 (Human GLP-1R): 0.1 nM

N#Cc1ccc(COc2ccc3c(n2)C2=C(COC3)CN(Cc3nc4ccc(C(=O)O)cc4n3C[C@@H]3CCO3)CC2)s1 [Compound 12, (S)-2-((2-((5-cyanothiophen-2-yl)methoxy)-5,8,10,11-tetrahydro-oxepino[4,3-b:6,5-c′]dipyridin-9(7H)-yl)methyl)-1-(oxetan-2-ylmethyl)-1H-benzo[d]imidazole-6-carboxylic acid]
EC50 (Human GLP-1R): 0.5 nM | half-life at 1 μM [1]: 59.8 min

O=C(O)c1ccc2nc(CN3CCC(c4cccc(OCc5ccc(-c6cncnc6)s5)n4)CC3)n(C[C@@H]3CCO3)c2c1 [Compound 13]
EC50 (Human GLP-1R): 0.47 nM
